In US20250214942A1, “INHIBITORS OF RECEPTOR INTERACTING PROTEIN KINASE I FOR THE TREATMENT OF DISEASE” (Board of Regents, The University of Texas System, priority 2019, published 2025):

Columns and labels:
RIPK1 = RIPK1 (Homo sapiens (Human), UniProt Q13546); experiment: ADP-Glo kinase assay (RIPK1 activity, conversion of ATP to ADP); format: biochemical; conditions: for IC50: 5 nM RIPK1, 50 μM ATP, 6 h reaction, read-out: RIPK1 Enzyme Avg IC50
In short: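 ADP-Glo luminescence of ATP-to-ADP conversion by 5 nM RIPK1 with 50 μM ATP (final), 6 h reaction after 10 min compound preincubation at rt. Buffer was 50 mM HEPES pH 7.5, 30 mM MgCl2, 0.05% BSA, 0.02% CHAPS. IC50 from four-parameter logistic fit.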

[1] = system: human monocytic cell line U937; experiment: Human U937 cellular necroptosis assay (TNFalpha + z-VAD-FMK, Cell Titer-Glo viability); format: cell-based; conditions: Homo sapiens, U-937, 22 h, U937 cells, 25 ng/mL human TNFalpha + 25 μM z-VAD-FMK, read-out: hU937 Avg IC50
In short: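 Cells resuspended in phenol red-free RPMI with 10% FBS, stimulated with 25 ng/mL human TNFalpha plus 25 μM z-VAD-FMK, then given serially diluted compound for 22 h at 37° C, 5% CO2. Viability by Cell Titer-Glo 2.0 luminescence; IC50 from four-parameter logistic fit, averaged across runs.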

Chain of RIPK1 (Q13546 1-327): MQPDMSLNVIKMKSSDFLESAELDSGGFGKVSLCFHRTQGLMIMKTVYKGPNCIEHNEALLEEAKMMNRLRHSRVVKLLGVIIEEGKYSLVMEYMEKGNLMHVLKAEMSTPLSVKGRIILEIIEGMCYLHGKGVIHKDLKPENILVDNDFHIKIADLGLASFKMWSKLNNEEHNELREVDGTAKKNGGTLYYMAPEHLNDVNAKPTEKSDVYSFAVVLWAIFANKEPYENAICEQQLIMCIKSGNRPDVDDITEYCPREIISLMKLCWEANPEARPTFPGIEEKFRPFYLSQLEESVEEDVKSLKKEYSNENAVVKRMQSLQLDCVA

Row | Structure (SMILES) | IC50 (RIPK1) [nM] | IC50 [1] [nM] | observed potency relative to the other enantiomer (RIPK1; enantiomers separated by SFC, assay not named)
1 | NC(=O)c1cc(OCC23CC(C(=O)N4N=CCC4c4cc(F)cc(F)c4)(C2)C3)ncn1 (stereo not drawn) [Example 8, 6-((3-(5-(3,5-Difluorophenyl)-4,5-dihydro-1H-pyrazole-1-carbonyl)bicyclo[1.1.1]pentan-1-yl)methoxy)pyrimidine-4-carboxamide] | 28 | 51 | –
2 | O=C(N1CC(F)CC1c1cccc(F)c1)C12CC(Cn3ncc4cc(F)ccc43)(C1)C2 (stereo not drawn) [Example 27, (3-((5-Fluoro-1H-indazol-1-yl)methyl)bicyclo[1.1.1]pentan-1-yl)(4-fluoro-2-(3-fluorophenyl)pyrrolidin-1-yl)methanone] | 14 | 167 | –
3 | Cc1cnc(C2CC=NN2C(=O)C23CC(Cn4ncc5cc(C#N)ccc54)(C2)C3)cn1 (stereo not drawn) [Example 49, 1-((3-(5-(5-Methylpyrazin-2-yl)-4,5-dihydro-1H-pyrazole-1-carbonyl)-bicyclo[1.1.1]pentan-1-yl)methyl)-1H-indazole-5-carbonitrile] | 22 | 67 | –
4 | COc1cccc(C(F)C23CC(C(=O)N4N=CCC4c4cc(F)cc(F)c4)(C2)C3)c1 (stereo not drawn) [Example 226, (5-(3,5-difluorophenyl)-4,5-dihydro-1H-pyrazol-1-yl)(3-(fluoro(3-methoxyphenyl)-methyl)bicyclo[1.1.1]pentan-1-yl)methanone] | 35 | 51 | –
5 | N#Cc1cccc(OCC23CC(C(=O)N4CC(F)CC4c4cccc(F)c4)(C2)C3)n1 (stereo not drawn) [Example 94, 6-((3-(4-fluoro-2-(3-fluoro-phenyl)pyrrolidine-1-carbonyl)bicyclo[1.1.1]-pentan-1-yl)methoxy)-picolinonitrile] | 109 | 994 | –
6 | N#Cc1cccc(C2CC=NN2C(=O)C23CC(Cn4ncc5cc(C#N)ccc54)(C2)C3)c1 (stereo not drawn) [Example 175, 1-((3-(5-(3-cyanophenyl)-4,5-dihydro-1H-pyrazole-1-carbonyl)bicyclo[1.1.1]-pentan-1-yl)methyl)-1H-indazole-5-carbonitrile] | 16 | 47 | –
7 | O=C(N1N=CCC1c1cc(F)cc(F)c1)C12CC(Cn3ncc4ccc(F)cc43)(C1)C2 (stereo not drawn) [Example 70, (5-(3,5-difluorophenyl)-4,5-dihydro-1H-pyrazol-1-yl)(3-((6-fluoro-1H-indazol-1-yl)-methyl)bicyclo[1.1.1]pentan-1-yl)methanone] | 34 | 26 | –
8 | Cc1cc(F)c([C@H]2CC=NN2C(=O)C23CC(COc4cnc(C#N)cn4)(C2)C3)cc1F [Example 196, (R)-5-((3-(5-(2,5-difluoro-4-methylphenyl)-4,5-dihydro-1H-pyrazole-1-carbonyl)bicyclo[1.1.1]pentan-1-yl)methoxy)pyrazine-2-carbonitrile] | – | 631 | less potent isomer
9 | O=C(N1N=CCC1c1cc(F)cc(F)c1)C12CC(Cn3ccc4cc(F)ccc43)(C1)C2 (stereo not drawn) [Example 133, (5-(3,5-difluorophenyl)-4,5-dihydro-1H-pyrazol-1-yl)(3-((5-fluoro-1H-indol-1-yl)-methyl)bicyclo[1.1.1]pentan-1-yl)methanone] | 20 | 10 | –
10 | O=C(N1N=CCC1c1cc(F)cc(F)c1)C12CC(COc3ccccc3Cl)(C1)C2 (stereo not drawn) [Example 336, (3-((2-chlorophenoxy)methyl)-bicyclo[1.1.1]pentan-1-yl)(5-(3,5-difluorophenyl)-4,5-dihydro-1H-pyrazol-1-yl)-methanone] | 31 | 55 | –
11 | N#Cc1ccc2c(cnn2CC23CC(C(=O)N4CCC4c4cccs4)(C2)C3)c1 (stereo not drawn) [Example 255, 1-((3-(2-(thiophen-2-yl)-azetidine-1-carbonyl)bicyclo-[1.1.1]pentan-1-yl)methyl)-1H-indazole-5-carbonitrile] | 49 | 550 | –
12 | N#Cc1cnn(CC23CC(C(=O)N4N=CCC4c4cc(F)cc(F)c4)(C2)C3)c1 (stereo not drawn) [Example 71, 1-((3-(5-(3,5-difluorophenyl)-4,5-dihydro-1H-pyrazole-1-carbonyl)bicyclo[1.1.1]-pentan-1-yl)methyl)-1H-pyrazole-4-carbonitrile] | 39 | 134 | –
13 | O=C(N1N=CCC1c1cc(F)cc(F)c1)C12CC(COc3cc(Cl)ncn3)(C1)C2 (stereo not drawn) [Example 7, (3-(((6-Chloropyrimidin-4-yl)oxy)methyl)bicyclo[1.1.1]pentan-1-yl)(5-(3,5-difluorophenyl)-4,5-dihydro-1H-pyrazol-1-yl)methanone] | 21 | 18 | –
14 | O=C(N1N=CCC1c1cc(F)cc(F)c1)C12CC(Cn3cc4ccc(F)cc4n3)(C1)C2 (stereo not drawn) [Example 62, (5-(3,5-difluorophenyl)-4,5-dihydro-1H-pyrazol-1-yl)(3-((6-fluoro-2H-indazol-2-yl)methyl)bicyclo[1.1.1]-pentan-1-yl)methanone] | 46 | 133 | –
15 | N#Cc1ccc2c(cnn2CC23CC(C(=O)NCc4cc(F)cc(F)c4)(C2)C3)c1 [Example 261, 3-((5-cyano-1H-indazol-1-yl)methyl)-N-(3,5-difluoro-benzyl)bicyclo[1.1.1]pentane-1-carboxamide] | 4520 | 9470 | –
16 | Cc1ccc(C2CC=NN2C(=O)C23CC(Cn4cc(C#N)cn4)(C2)C3)nc1 (stereo not drawn) [Example 171, 1-((3-(5-(5-methylpyridin-2-yl)-4,5-dihydro-1H-pyrazole-1-carbonyl)bicyclo[1.1.1]-pentan-1-yl)methyl)-1H-pyrazole-4-carbonitiile] | 670 | 3700 | –
17 | Cc1cncc(C2CC=NN2C(=O)C23CC(Cn4cc(C#N)cn4)(C2)C3)n1 (stereo not drawn) [Example 169, 1-((3-(5-(6-methylpyrazin-2-yl)-4,5-dihydro-1H-pyrazole-1-carbonyl)bicyclo[1.1.1]-pentan-1-yl)methyl)-1H-pyrazole-4-carbonitrile] | 343 | 3310 | –
18 | O=C(N1N=CCC1c1cc(F)cc(F)c1)C12CC(COc3cc(F)ccc3F)(C1)C2 (stereo not drawn) [Example 338, (3-((2,5-difluorophenoxy)-methyl)bicyclo[1.1.1]pentan-1-yl)(5-(3,5-difluorophenyl)-4,5-dihydro-1H-pyrazol-1-yl)methanone] | 26 | 165 | –
19 | N#Cc1cc(OCC23CC(C(=O)N4N=CCC4c4cncc(F)c4)(C2)C3)ncn1 (stereo not drawn) [Example 126, 6-((3-(5-(5-fluoropyridin-3-yl)-4,5-dihydro-1H-pyrazole-1-carbonyl)bicyclo[1.1.1]-pentan-1-yl)-methoxy)pyrimidine-4-carbonitrile] | 49 | 440 | –
20 | N#Cc1cc2cn(CC34CC(C(=O)N5N=CCC5c5cc(F)cc(F)c5)(C3)C4)nc2cn1 (stereo not drawn) [Example 219, 2-((3-(5-(3,5-difluorophenyl)-4,5-dihydro-1H-pyrazole-1-carbonyl)bicyclo[1.1.1]pentan-1-yl)methyl)-2H-pyrazolo[3,4-c]pyridine-5-carbonitrile] | 47 | 292 | –
21 | O=C(N1N=CCC1c1cc(F)cc(F)c1)C12CC(CCl)(C1)C2 (stereo not drawn) [Example 11, (3-(Chloromethyl)bicyclo[1.1.1]pentan-1-yl)(5-(3,5-difluorophenyl)-4,5-dihydro-1H-pyrazol-1-yl)methanone] | 20 | 18 | –
22 | N#Cc1cnc2c(ccn2CC23CC(C(=O)N4N=CCC4c4cc(F)cc(F)c4)(C2)C3)c1 (stereo not drawn) [Example 212, 1-((3-(5-(3,5-difluorophenyl)-4,5-dihydro-1H-pyrazole-1-carbonyl)bicyclo[1.1.1]pentan-1-yl)methyl)-1H-pyrrolo[2,3-b]pyridine-5-carbonitrile] | 11 | 19 | –
23 | O=C(N1N=CCC1c1cc(F)cc(F)c1)C12CC(Cn3ncc4c3CCC4)(C1)C2 (stereo not drawn) [Example 145, (5-(3,5-difluorophenyl)-4,5-dihydro-1H-pyrazol-1-yl)(3-((5,6-dihydrocyclopenta[c]-pyrazol-1(4H)-yl)methyl)-bicyclo[1.1.1]pentan-1-yl)methanone] | 169 | 701 | –
24 | Cn1c(=O)n(CC23CC(C(=O)N4N=CCC4c4cc(F)cc(F)c4)(C2)C3)c2ccccc21 (stereo not drawn) [Example 110, 1-((3-(5-(3,5-difluorophenyl)-4,5-dihydro-1H-pyrazole-1-carbonyl)bicyclo[1.1.1]-pentan-1-yl)methyl)-3-methyl-1,3-dihydro-2H-benzo[d]imidazol-2-one] | 134 | 734 | –
25 | Cc1ncnc(OCC23CC(C(=O)N4CC(F)CC4c4cccc(F)c4)(C2)C3)c1F (stereo not drawn) [Example 93, (4-fluoro-2-(3-fluorophenyl)-pyrrolidin-1-yl)(3-(((5-fluoro-6-methylpyrimidin-4-yl)oxy)methyl)bicyclo[1.1.1]-pentan-1-yl)methanone] | 79 | 398 | –
26 | N#Cc1cnc2cn(CC34CC(C(=O)N5N=CCC5c5cc(F)cc(F)c5)(C3)C4)nc2c1 (stereo not drawn) [Example 222, 2-((3-(5-(3,5-difluorophenyl)-4,5-dihydro-1H-pyrazole-1-carbonyl)bicyclo[1.1.1]pentan-1-yl)methyl)-2H-pyrazolo[4,3-b]pyridine-6-carbonitrile] | 220 | 1100 | –
27 | O=C(N1N=CCC1c1cc(F)cc(F)c1)C12CC(COc3cccc(F)c3Cl)(C1)C2 (stereo not drawn) [Example 332, (3-((2-chloro-3-fluoro-phenoxy)methyl)bicyclo-[1.1.1]pentan-1-yl)(5-(3,5-difluorophenyl)-4,5-dihydro-1H-pyrazol-1-yl)methanone] | 19 | 33 | –
